Read-outs that look alike come from different tables or passages of the source.
Key:
[1] = system: Human Trabecular Meshwork Cells; assay: Cellular cGMP assay in human trabecular meshwork cells; type: cell-based; details: 10 μM Riociguat; for Concentration (nM) for 3-fold or 2-fold* cGMP increase vs Baseline: 3-fold increase (values without asterisk); for Ratio Maximum cGMP increase vs Baseline: 5 mM GSH, incubation 2 h
Human Platelets = assay: Total cGMP in human platelets; type: cell-based; details: for Ratio Maximum cGMP increase vs Baseline: 1 μM riociguat and 100 nM BAY 190954, incubation 2 h; for Concentration (nM) for 3-fold cGMP or 2-fold* increase vs Baseline: 3-fold increase (values without asterisk), 1 μM riociguat, 100 nM BAY 190954
Method: Effects of test and reference compounds on total cGMP in human platelets were investigated as described by Dunkern and Hatzelmann (Cell Signal. 17: 331-9, 2005) with modifications. Briefly, buffy coats (acquired form SRK Blutspende Zurich) were 4-fold diluted in 150 mM sodium chloride solution containing 0.9% sodium citrate and centrifuged at 200 g for 10 min. The resulting platelet-rich plasma was supplemented with a 1/10 volume of ACD solution (85 mM sodium citrate, 111 mM D-glucose, 71 mM citric acid, pH 4.4) and apyrase (Sigma AG) to a final concentration of 2 U/ml. After another centrifugation (1400 g, 10 min) the cellular pellet was resuspended in Ca2+/Mg2+-free Hepes-Tyrode buffer (134 mM NaCl, 12 mM NaHCO3, 2.9 mM KCl, 0.36 mM NaH2PO4, 5 mM HEPES, 5 mM glucose, 0.5% (w/v) bovine serum albumin, pH 7.4) and platelets were counted.
Platelets were used at 9×10^7 cells in 100 μl per well and after adding test and reference compounds the incubation volume was 200 μl per well in Hepes-Tyrode. Experiments in platelets were done in presence of 1 μM riociguat and 100 nM BAY 190954 (PDE2 inhibitor) (Lucerna Chem AG) and test/reference compounds were added after a preincubation time of 15 min. At the end of the incubation time (see below) the reaction was terminated by adding 20 μl of 2N HCl per well. Following a 20 sec on a plate shaker (300 rpm) the plate was left for 15 min and then centrifuged at 1000×g for 5 min. Supernatants were stored at −80° C.
(§1) cGMP was determined by a commercially available ELISA kit (Direct cGMP ELISA kit, Enzo Life Sciences AG, Lauren, Switzerland) with a lower detection limit of 0.08 pmol/ml using the acetylation protocol following manufacturer's instructions. Results are given as the means from at least two independent experiments each in triplicate.
(§2) To study concentration-dependent effects on total cGMP test and reference compounds were investigated from 0.1 nM to 1 μM in half-logarithmic steps with an incubation time of 2 h. To examine the time course the incubation times were (min) 10, 30, 60, 90, 120 at 1 μM of test or reference compound.
(§3) Compounds were diluted from stock solutions in DMSO. The final concentration of DMSO in all wells including the vehicle controls was 0.2% for human trabecular meshwork and rat aortic smooth muscle cells and 0.3% for platelets.
(§4) From time course experiments, the time to half of the maximum cGMP increase with 1 μM of test compound has been extrapolated (t0.5max).

[2] = target: T1, recombinant human (rh) PDE5A (Homo sapiens, UniProt O76074); assay: Phosphodiesterase-5 activity assay (radiometric SPA); type: biochemical; details: rhPDE5A1, 0.5 μM cGMP, 20 min at 37° C.
T1 construct: GST; purchased SIGMA E9034

[3] = system: Rat aortic smooth muscle cells; assay: Cellular cGMP assay in rat aortic smooth muscle cells; type: cell-based; details: 10 μM Riociguat; for Ratio Maximum cGMP increase vs Baseline: 5 mM GSH, incubation 2 h
Method: Examples (Test compounds) were characterized for their potency and efficacy to elevate cGMP in cellular systems such as human trabecular meshwork cells (Table 3), human platelets (Table 5) and rat aortic smooth muscle cells (Table 4).
Human trabecular meshwork cells (ABC Biopply AG, Solothurn, Switzerland) or rat aortic smooth muscle cells (Sigma Aldrich AG, Buchs, Switzerland) were plated in a 96 well plate precoated with collagen (Collagen Type I solution from rat tail, Sigma; diluted to 0.1 mg/ml) at 20.000 cells per well and grown in corresponding Trabecular Meshwork (ABC Supply AG) or Smooth Muscle (Sigma AG) Growth medium as provided by the manufacturers. After 18 h medium was exchanged and new medium added supplemented with 5 mM GSH. The next day culture medium was exchanged to DMEM with low glucose supplemented with 5 mM GSH. Cells were pre-incubated with 10 μM Riociguat (soluble guanylate cyclase stimulator; Lucerna-Chem AG, Luzern, Switzerland) for 15 min before test or reference compounds or vehicle was added to a final incubation volume of 100 μl per well. At the end of the incubation time (see below) the reaction was terminated by adding HCl (0.16M), IBMX (Isobutylmethylxanthin) (2 mM) in DMSO (2%) to the culture medium, final concentrations per well are given in brackets. Following a 20 sec on a plate shaker (200 rpm) the plate was immediately frozen at −80° C.
as §1, §2, §3, §4

[4] = system: Human Pulmonary Artery Smooth Muscle Cells (hPASMC); assay: cGMP in human pulmonary artery smooth muscle cells (hPASMC); type: cell-based; details: 30 min incubation, FIG. 4
Method: Human Pulmonary Artery Smooth Muscle Cells (hPASMC) were purchased from Clonetics™ Lonza (Lonza, reference number CC-2581) and cultured in Clonetics™ smooth muscle growth medium (Clonetics™ SmGM™-2 with BulletKit™ growth factor supplements (Lonza, reference number CC-3182) at 37° C. in 5% CO2. Culture medium was replaced each 48 hours. Cells were grown in 75 cm^2 culture plates.
48 h before the experiments, cells were trypsinized (Trypsin kit One ReagentPack™ (CC-5034), Lonza) and plated in 96 well plates precoated with collagen I at 10000 cells per well. 24 h before the experiments culture medium was replaced by serum-reduced (0.5% FBS) medium.
Measurements of intracellular cGMP were performed using the Amersham cGMP EIA System (GE Healthcare, RPN226) following the instructions of the manufacturer. The assay has a sensitivity of 2 fmol cGMP per well. Briefly, incubations were terminated by adding Amersham's lysis buffer 1 and cells left for 10 min under agitation to ensure complete lysis. cGMP in samples was then acetylated using triethylamine and acetic anhydride and determined by a competitive ELISA. The ELISA is based on the competition between acetylated cGMP in cell culture lysates and a peroxidase-labelled cGMP conjugate for limited binding sites on a cGMP specific antiserum immobilized on pre-coated 96 well MTP. cGMP was determined based on a standard curve. […]

[5] = Human plasma protein binding; type: in vitro ADME; details: for fraction unbound: human
Method: An aliquot of 200 μL of human plasma containing test compound was spiked into donor well (red chamber) of the insert. 350 μL of PBS was spiked into receiver well (white chamber) of the insert.
The samples were matrix equilibrated with opposite matrix (25 μL of plasma/buffer sample was matched with 25 μL of blank buffer/plasma). Matrix matched samples were precipitated with 200 μL of acetonitrile containing internal standard. Samples were vortexed at 1000 rpm for 5 min and centrifuged at 4000 rpm for 10 min. Supernatant was separated, diluted 2 fold with water and analysed in LC-MS/MS. (Table 2).

[6] = read-out: % Unbound in human plasma

SMILES | IC50 [2] [nM] | fraction unbound ([5]; read-out: % Bound in human plasma (converted)) | Concentration (nM) for 3-fold or 2-fold* cGMP increase vs Baseline ([1]; HTMC) [nM] | Ratio Maximum cGMP increase vs Baseline ([1]; HTMC) | Ratio Maximum cGMP increase vs Baseline (Human Platelets) | Concentration (nM) for 3-fold cGMP or 2-fold* increase vs Baseline (Human Platelets) [nM] | Concentration (nM) for 3-fold cGMP increase vs Baseline [3] [nM] | Ratio Maximum cGMP increase vs Baseline [3] | efficacy in increasing cGMP level as compared to the reference inhibitor vardenafil [4] | fraction unbound [5, 6] | effect to elevate cGMP in HTMC compared with organic nitrate ester ITN and PDE5 inhibitors sildenafil or vardenafil ([1]; HTMC, FIG. 3A and FIG. 3B) | concentration equipotent to ITN & Vardenafil to elevate cGMP in HTMC ([1]; equipotent to 1 μM ITN & 1 μM Vardenafil) [nM] | concentration equipotent to ITN & Vardenafil to elevate cGMP in HTMC ([1]; equipotent to 10 μM ITN & 1 μM Vardenafil) [nM] | concentration equipotent to ITN & Sildenafil to elevate cGMP in HTMC ([1]; first value of pair 10.6 nM/50.8 nM, printed against 10 μM ITN & 1 μM Sildenafil) [nM] | concentration equipotent to ITN & Sildenafil to elevate cGMP in HTMC ([1]; second value of pair 10.6 nM/50.8 nM, equipotent to 10 μM ITN & 1 μM Sildenafil) [nM] | % Bound in human plasma [5] [%]
CCCc1nn(C)c2c(=O)[nH]c(-c3cc(S(=O)(=O)N4CCC([C@H](CO[N+](=O)[O-])O[N+](=O)[O-])CC4)ccc3OCC)nc12 [Compound 1a, (R)-1-(1-((4-ethoxy-3-(1-methyl-7-oxo-3-propyl-6,7-dihydro-1H-pyrazolo[4,3-d]pyrimidin-5-yl)phenyl)sulfonyl)piperidin-4-yl)ethane-1,2-diyl dinitrate] | 5 | – | 26.7 | 55.7 | 67.4 | 57 | 222 | 4.44 | – | – | – | – | – | – | – | –
CCCc1nc(C)c2c(=O)[nH]c(-c3cc(S(=O)(=O)N4CCC([C@H](CO[N+](=O)[O-])O[N+](=O)[O-])CC4)ccc3OCC)nn12 [Compound 2a, (R)-1-(1-((4-ethoxy-3-(5-methyl-4-oxo-7-propyl-3,4-dihydroimidazo[5,1-f][1,2,4]triazin-2-yl)phenyl)sulfonyl)piperidin-4-yl)ethane-1,2-diyl dinitrate] | 0.42 | – | 4.2 | 101.7 | 152.5 | 3.3 | 293 | 10.58 | significantly higher efficacy | 0.002 | over-additive effects | 2.6 | 12.4 | 10.6 | 50.8 | 99.80
CCCc1nc(C)c2c(=O)[nH]c(-c3cc(S(=O)(=O)N4CCC([C@@H](O)CO[N+](=O)[O-])CC4)ccc3OCC)nn12 [Compound 2c, (R)-2-(1-((4-ethoxy-3-(5-methyl-4-oxo-7-propyl-3,4-dihydroimidazo[5,1-f][1,2,4]triazin-2-yl)phenyl)sulfonyl)piperidin-4-yl)-2-hydroxyethyl nitrate] | 0.14 | – | 10.1 | 52.1 | 105.4 | 4.3 | 729 | 5.93 | – | – | – | – | – | – | – | –

Second part, led by results:

IC50 [2] [nM] | fraction unbound ([5]; read-out: % Bound in human plasma (converted)) | SMILES | Concentration (nM) for 3-fold or 2-fold* cGMP increase vs Baseline ([1]; HTMC) [nM] | Ratio Maximum cGMP increase vs Baseline ([1]; HTMC) | Ratio Maximum cGMP increase vs Baseline (Human Platelets) | Concentration (nM) for 3-fold cGMP or 2-fold* increase vs Baseline (Human Platelets) [nM] | Concentration (nM) for 3-fold cGMP increase vs Baseline [3] [nM] | Ratio Maximum cGMP increase vs Baseline [3] | efficacy in increasing cGMP level as compared to the reference inhibitor vardenafil [4] | fraction unbound [5, 6] | effect to elevate cGMP in HTMC compared with organic nitrate ester ITN and PDE5 inhibitors sildenafil or vardenafil ([1]; HTMC, FIG. 3A and FIG. 3B) | concentration equipotent to ITN & Vardenafil to elevate cGMP in HTMC ([1]; equipotent to 1 μM ITN & 1 μM Vardenafil) [nM] | concentration equipotent to ITN & Vardenafil to elevate cGMP in HTMC ([1]; equipotent to 10 μM ITN & 1 μM Vardenafil) [nM] | concentration equipotent to ITN & Sildenafil to elevate cGMP in HTMC ([1]; first value of pair 10.6 nM/50.8 nM, printed against 10 μM ITN & 1 μM Sildenafil) [nM] | concentration equipotent to ITN & Sildenafil to elevate cGMP in HTMC ([1]; second value of pair 10.6 nM/50.8 nM, equipotent to 10 μM ITN & 1 μM Sildenafil) [nM] | % Bound in human plasma [5] [%]
1 | 0.0118 | CCCc1nn(C)c2c(=O)[nH]c(-c3cc(S(=O)(=O)N4CCC([C@@H](O)CO[N+](=O)[O-])CC4)ccc3OCC)nc12 [Compound 1c, (R)-2-(1-((4-ethoxy-3-(1-methyl-7-oxo-3-propyl-6,7-dihydro-1H-pyrazolo[4,3-d]pyrimidin-5-yl)phenyl)sulfonyl)piperidin-4-yl)-2-hydroxyethyl nitrate] | 25.1 | 61.9 | 26.1 | 33.3 | 1300 | 3.47 | significantly higher efficacy | 0.0118 | – | – | – | – | – | –
1.5 | – | CCCc1nn(C)c2c(=O)[nH]c(-c3cc(S(=O)(=O)N4CCC([C@@H](O)CO)CC4)ccc3OCC)nc12 [Compound 4, (R)-5-(5-((4-(1,2-dihydroxyethyl)piperidin-1-yl)sulfonyl)-2-ethoxyphenyl)-1-methyl-3-propyl-1,6-dihydro-7H-pyrazolo[4,3-d]pyrimidin-7-one] | 99.8 | 12.4 | 6.4 | 92.6 | >10000 | 1.04 | – | – | – | – | – | – | – | –
0.08 | – | CCCc1nc(C)c2c(=O)[nH]c(-c3cc(S(=O)(=O)N4CCC([C@@H](O)CO)CC4)ccc3OCC)nn12 [Compound 25, (R)-2-(5-((4-(1,2-dihydroxyethyl)piperidin-1-yl)sulfonyl)-2-ethoxyphenyl)-5-methyl-7-propyl imidazo[5,1-f][1,2,4]triazin-4(3H)-one] | 58.5 | 22.3 | 23.3 | 5.9 | >10000 | 0.89 | – | – | – | – | – | – | – | –
